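Five compound concentrations were applied to cells in 96-well plates for 48 hours; endpoints were derived by simple linear interpolation of the resulting dose-response curve. GI50: concentration for 50% inhibition of growth. TGI denotes the concentration required for complete inhibition of growth.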
Key:
Test in all cases: NCI anticancer screen, dose series, 48 h
NCI-H226 lung = tested on: NCI-H226 lung
SR leukemia = tested on: SR leukemia
SK-OV-3 ovarian = tested on: SK-OV-3 ovarian
HCT-15 colon = tested on: HCT-15 colon
NCI-H522 lung = tested on: NCI-H522 lung
MALME-3M melanoma = tested on: MALME-3M melanoma
SF-295 CNS = tested on: SF-295 CNS
SW-620 colon = tested on: SW-620 colon
HT29 colon = tested on: HT29 colon
SK-MEL-5 melanoma = tested on: SK-MEL-5 melanoma

| Structure (SMILES) | GI50 (NCI-H226 lung) [µM] | TGI (NCI-H226 lung) [µM] | GI50 (SR leukemia) [µM] | TGI (SR leukemia) [µM] | GI50 (SK-OV-3 ovarian) [µM] | TGI (SK-OV-3 ovarian) [µM] | GI50 (HCT-15 colon) [µM] | TGI (HCT-15 colon) [µM] | GI50 (NCI-H522 lung) [µM] | TGI (NCI-H522 lung) [µM] | GI50 (MALME-3M melanoma) [µM] | TGI (MALME-3M melanoma) [µM] | GI50 (SF-295 CNS) [µM] | TGI (SF-295 CNS) [µM] | GI50 (SW-620 colon) [µM] | TGI (SW-620 colon) [µM] | GI50 (HT29 colon) [µM] | TGI (HT29 colon) [µM] | GI50 (SK-MEL-5 melanoma) [µM] | TGI (SK-MEL-5 melanoma) [µM] |
| --- | --- | --- | --- | --- | --- | --- | --- | --- | --- | --- | --- | --- | --- | --- | --- | --- | --- | --- | --- | --- |
| CC(=O)N1N=C2/C(=C/c3ccccc3)CC(C)CC2C1c1ccccc1 (centres undefined) | 15.3 | 34 | 10.7 | 33 | 17.1 | 40.3 | 13.7 | 28.9 | 13.8 | 31.7 | 18 | 37.4 | 15.9 | 35.1 | 15.2 | 33.2 | 12.9 | 29.9 | 11.6 | 25.4 |
| CC1=C[C@H]2c3c(c(O)c(O)c4oc5c(C)cccc5c(=O)c34)[C@H](c3cc(O)c(O)c4oc5c(C)cccc5c(=O)c34)[C@H]2C(C)(C)C1 | 2.21 | 5.99 | 0.72 | > 100 | 2.46 | 9.96 | 1.29 | 10.9 | 1.97 | 4.29 | 2.43 | 10.7 | 1 | 2.84 | 1.93 | 10 | 2.12 | 8.92 | 1.43 | 2.78 |
| c1ccc(Cn2cc3c(c2-c2ccccc2)CCc2cnoc2-3)cc1 | 14.7 | > 100 | 1.96 | 9.28 | 7.36 | > 100 | 3.72 | > 100 | 3.04 | > 100 | 3.13 | 30.1 | 3.16 | 31.5 | 3.15 | 53.9 | 3.11 | 33.4 | 2.79 | 12.8 |
| O=C1CC(c2ccc(N3CCOCC3)cc2)(c2ccsc2)NC(=O)C1Sc1ccccc1Cl (centres undefined) | > 100 | > 100 | 4.4 | > 100 | > 100 | > 100 | 56.7 | > 100 | 13.8 | > 100 | > 100 | > 100 | 67 | > 100 | 21.6 | > 100 | 46.4 | > 100 | 36.6 | > 100 |
| COc1cccc(C2c3cc4c(cc3OC(C)(O)C2C)OCO4)c1O (centres undefined) | – | 18.7 | – | > 42.1 | – | 42.8 | – | 27.8 | – | 5.6 | – | 56.3 | – | 14.1 | – | > 100 | – | 17.4 | – | 16.9 |
| COc1cc(-c2nc(Nc3nc4ccccc4[nH]3)nc(N)c2C#N)cc(OC)c1OC | 32.7 | > 89.3 | 0.23 | > 100 | 4.4 | 56.8 | 18.1 | > 100 | 0.45 | 3.61 | 21.7 | > 80.1 | 0.191 | – | 1.85 | 26.1 | 0.877 | 24.1 | 0.414 | 16.2 |
